We go through 5 molecules from patent US8404650B2, “Methods of treating cancer with doxazolidine and prodrugs thereof” (priority 2005, dated 2013).

Like-named read-outs stand apart in the source and are kept apart here.

One data set concerns MCF-7/Adr. Put plainly: Growth inhibition of multidrug resistant MCF-7/Adr breast cancer cells (crystal violet). It is filed as cell-based. Conditions: for IC50: Homo sapiens, NCI/ADR-RES. Here is the method:
In vitro Activity. […] This cell suspension was dispensed in 200 μL aliquots (1000 cells/well) into the inside wells of 96-well tissue culture plates. Outside wells contained 200 μL of media. […] The medium was replaced with 90 μL of growth medium prior to addition of the drug. Doxaz was dissolved in DMSO at concentrations ranging from 50 μM to 1 mM. […] Serial dilutions (1:3 and 1:10) were made in sterile DMSO to yield seven solutions of decreasing drug concentration at 100× the respective working concentrations. […] Additionally, two lanes were treated with 10 μL of growth medium containing 10% sterile DMSO and one lane was treated with 90 μL of 1.5 M Tris HCl. […]
Cell growth inhibition experiments initially focused on MCF-7, MCF-7/Adr, SK-HEP-1, and Hep G2 cancer cells as well as rat cardiomyocytes as a measure of cardiotoxicity and Vero cells (green monkey kidney cells) as an additional measure of normal cell toxicity.
Activity of plasmin-activated prodrugs.
A more thorough characterization of the growth inhibition of a variety of cancer cells as well as rat cardiomyocytes by Formula IV (aFK-PABC-Doxaz) was evaluated in comparison with inhibition of growth by Doxaz, Dox and aFK-PABC-Dox. Cells were treated with drug for 3 h and colony growth was measured at 3 to 5 days when cells reached about 80% confluence. […] The breast cancer cell lines represent the multi-drug resistant (MDR) phenotype with MCF-7/Adr cells and a cell line that is transfected with the gene for urokinase plasminogen activator (uPA), the primary enzyme responsible for cleavage of plasminogen to plasmin. Rat cardiomyocytes served as a model for comparison of drug cardiotoxicity.

For data set [1], the system named is H9c2(2-1) rat cardiomyocytes. Put plainly: Growth inhibition of rat cardiomyocytes as a measure of cardiotoxicity. It is filed as cell-based. Conditions: for IC50: Rattus norvegicus; for Toxicity to cardiomyocytes compared with Doxorubicin: rat cardiomyocytes. The method, then:
Biological activity of simple Doxazolidine carbamates. Since the prodrug carbamates were designed to be activated by carboxylesterases CES1 (hCE1) and/or CES2 (hiCE), cell lines of interest were measured for expression of the respective mRNAs using reverse transcription (RT) followed by PCR (polymerase chain reaction). Cancer cell lines investigated included SHP-77 resistant small cell lung, DU-145 prostate, MCF-7 sensitive breast, MCF-7/Adr resistant breast, SK-HEP-1 liver, and Hep G2 liver cells. As a measure of possible cardiotoxicity, H9c2(2-1) rat cardiomyocytes were also investigated. Cardiotoxicity is relevant because the ultimate product of metabolism and subsequent hydrolysis of these carbamates is doxorubicin, which is cardiotoxic. […] Additionally, the rat cardiomyocytes, H9c2(2-1), also express more CES2 than CES1.
Cell growth inhibition experiments initially focused on MCF-7, MCF-7/Adr, SK-HEP-1, and Hep G2 cancer cells as well as rat cardiomyocytes as a measure of cardiotoxicity and Vero cells (green monkey kidney cells) as an additional measure of normal cell toxicity. The butyl and pentyl carbamates inhibited the growth of MCF-7, MCF-7/Adr, and SK-HEP-1 cell lines with a 24 h drug treatment period with some selectivity for cancer cells over cardiomyocytes relative to growth inhibition by Dox as shown in Table 2. […] The relative inactivity of the ethyl carbamate may indicate that a substantial lipophilic interaction is required at the active site of the carboxylesterases to hold the Doxaz substrate.
Biological activity of Doxazolidine carbamates with self-eliminating spacer. […] SHP-77 small cell lung cancer cells were also of interest because they express modest amounts of both enzymes. Inhibition of the growth of cardiomyocytes was used as a measure of cardiotoxicity, and inhibition of the growth of Vero cells, green monkey kidney cells, was again used as another measure of toxicity to normal cells. They also show more activity against the cancer cells that express higher levels of CES1. Of particular note is the higher activity against Hep G2 cells than against SK-HEP-1 cells. […] The low toxicity of pentyl PABC-Doxaz to cardiomyocytes relative to the toxicity of Dox is encouraging and consistent with the low level of expression of CES1 in cardiomyocytes.
A more thorough characterization of the growth inhibition of a variety of cancer cells as well as rat cardiomyocytes by Formula IV (aFK-PABC-Doxaz) was evaluated in comparison with inhibition of growth by Doxaz, Dox and aFK-PABC-Dox. Cells were treated with drug for 3 h and colony growth was measured at 3 to 5 days when cells reached about 80% confluence. The cancer cells included one prostate cancer cell line (DU-145), three related breast cancer cell lines (MCF-7, MCF-7/Adr, and MCF-7 uPA), and one pancreatic cancer cell line (Mia PaCa-2). The breast cancer cell lines represent the multi-drug resistant (MDR) phenotype with MCF-7/Adr cells and a cell line that is transfected with the gene for urokinase plasminogen activator (uPA), the primary enzyme responsible for cleavage of plasminogen to plasmin. Rat cardiomyocytes served as a model for comparison of drug cardiotoxicity. Growth inhibition was also measured with added plasmin. aFK-PABC-Doxaz inhibited the growth of most of the cancer cells 0.5 log or more better than did aFK-PABA-Dox. Although not as dramatic, this differential response paralleled the differential response between Doxaz and Dox which is approximately two logs except for the MDR expressing, MCF-7/Adr cells which show more than three logs differential response. […] Addition of 0.01 unit/mL of plasmin has no effect on the activity of Dox but increases the activity of both aFK-PABC-Doxaz and aFK-PABC-Dox, in some cases by more than a log. Addition of 0.01 unit/mL plasminogen increases the activity of aFK-PABC-Doxaz on average by 0.3 log. […]

The next data set concerns SK-HEP-1. Put plainly: Growth inhibition of SK-HEP-1 liver cancer cells. To be noted: for IC50: Homo sapiens, SK-HEP1. In kind it is cell-based, human. An excerpt: Cell growth inhibition experiments initially focused on MCF-7, MCF-7/Adr, SK-HEP-1, and Hep G2 cancer cells as well as rat cardiomyocytes as a measure of cardiotoxicity and Vero cells (green monkey kidney cells) as an additional measure of normal cell toxicity. […]

[2] abbreviates: 3 h, read-out: IC50 MCF-7/Adr + plasmin.
[3] abbreviates: read-out: IC50 value for cell growth inhibition, MCF-7/Adr.
Where [4] appears, read: 3 h, read-out: Growth inhibition IC50, MCF-7/Adr, 3 h.
[5] abbreviates: 3 h drug treatment, crystal violet, read-out: Growth inhibition IC50, SK-HEP-1, 3 h (converted).
[6] abbreviates: H9c2, 3 h, read-out: Growth inhibition IC50, H9c2(2-1), 3 h.
The mark [7] stands for this setting: 24 h drug treatment, crystal violet.

For `COc1cccc2c1C(=O)c1c(O)c3c(c(O)c1C2=O)C[C@@](O)(C(=O)CO)C[C@@H]3O[C@H]1C[C@H]2[C@H](OCN2C(=O)OCc2ccc(NC(=O)[C@H](CCCCN)NC(=O)[C@H](Cc3ccccc3)NC(=O)[C@@H](C)N)cc2)[C@H](C)O1` [Formula IV, D-Ala-L-Phe-L-Lys-p-aminobenzyloxycarbonyl-Doxaz], the IC50 with MCF-7/Adr (setting [2]) was 10 nM; with MCF-7/Adr (read-out: IC50 MCF-7/Adr), 100 nM; in data set [1] (H9c2, read-out: IC50 Rat Cardio. + plasmin) it was 40 nM.
Turning to `COc1cccc2c1C(=O)c1c(O)c3c(c(O)c1C2=O)C[C@@](O)(C(=O)CO)C[C@@H]3OC1CC2C(OCN2CN2COC3C(C)OC(O[C@H]4C[C@](O)(C(=O)CO)Cc5c(O)c6c(c(O)c54)C(=O)c4c(OC)cccc4C6=O)CC32)C(C)O1` (stereo partly shown) [DoxF, Doxoform, reference compound], the IC50 in the data set with MCF-7/Adr (3 h, read-out: IC50 MCF-7/Adr) was 1 nM; with MCF-7/Adr (setting [3]), roughly 2 nM. Moreover, in the data set with SK-HEP-1, the “IC50 lower than doxorubicin, SK-HEP-1” value is reported as “more than 25 fold”. Moreover, in data set [1], the “Toxicity to cardiomyocytes compared with Doxorubicin” value is listed as “no more toxic to cardiomyocytes than Doxorubicin”.
`COc1cccc2c1C(=O)c1c(O)c3c(c(O)c1C2=O)C[C@@](O)(C(=O)CO)C[C@@H]3O[C@H]1C[C@H](N)[C@H](O)[C@H](C)O1` [Doxorubicin, reference compound]: the IC50 in the data set on MCF-7/Adr (setting [4]) is 6310 nM; in the data set with MCF-7/Adr (setting [2]), 20000 nM; in the data set on MCF-7/Adr (24 h, read-out: Growth inhibition IC50, MCF-7/Adr, 24 h) it was 2510 nM; with MCF-7/Adr (read-out: IC50 MCF-7/Adr), 10000 nM; in the data set on SK-HEP-1 (setting [5]), 100 nM; with SK-HEP-1 (24 h drug treatment, crystal violet, read-out: Growth inhibition IC50, SK-HEP-1, 24 h (converted)) it was 50.1 nM. The IC50 in data set [1] (setting [6]) was 31.6 nM; in data set [1] (H9c2, 24 h, read-out: Growth inhibition IC50, H9c2(2-1), 24 h), 20 nM; in data set [1] (H9c2, read-out: IC50 Rat Cardio., top line of the cell), 20 nM.
Regarding `COc1cccc2c1C(=O)c1c(O)c3c(c(O)c1C2=O)C[C@@](O)(C(=O)CO)C[C@@H]3O[C@H]1C[C@@H]2NCO[C@@H]2[C@H](C)O1` [Doxaz, Doxazolidine], the IC50 in the data set on MCF-7/Adr (setting [4]) was 3.16 nM; with MCF-7/Adr (read-out: IC50 MCF-7/Adr), 3 ± 0.2 nM; in the data set on MCF-7/Adr (setting [3]), roughly 2 nM; in the data set with SK-HEP-1 (setting [5]), 3.98 nM; in data set [1] (setting [6]), 31.6 nM. Moreover, the “Toxicity to cardiomyocytes compared with Doxorubicin” value in data set [1] is on record as “no more cardiotoxic than Doxorubicin”.
Take `CCCCCOC(=O)Nc1ccc(COC(=O)N2COC3C(C)OC(OC4CC(O)(C(=O)CO)Cc5c(O)c6c(c(O)c54)C(=O)c4c(OC)cccc4C6=O)CC32)cc1` (stereo not shown) [Pentyl PABC-Doxaz, Pentyl 4-(N-doxazolidinylcarbonyloxymethyl)phenylcarbamate]: the “Growth inhibition IC50, MCF-7/Adr, 24 h” value in the data set with MCF-7/Adr (setting [7]) is recorded as −6.5 ± 0.06 log of the molar concentration. Also, in the data set on SK-HEP-1 (setting [7]), the “Growth inhibition IC50, SK-HEP-1, 24 h” value was −6.0 ± 0.06 log of the molar concentration. The “Growth inhibition IC50, H9c2(2-1), 24 h” value in data set [1] (setting [7]) is on record as −6.2 ± 0.2 log of the molar concentration.
